Experimental data published in patent US20250237649A1 (priority 2021, published 2025).
Entries after “also recorded” stand apart in the source; their conditions may differ. Read-outs that look alike come from different tables or passages of the source. Non-standard residues stand in square brackets, D forms with d. Residues, ends and D or L forms follow the SMILES beside them. *: point of attachment. Sta = CC(C)C[C@H](N)[C@@H](O)CC(=O)O; pNA = O=[N+]([O-])c1ccc(N*)cc1; Isovaleryl = CC(C)CC(=O)*; Cbz = O=C(OCc1ccccc1)*

How the values were obtained:
M. bovis cells [1] = type: cell-based, Mycobacterium bovis
[2] = Cytotoxicity towards HepG2 hepatocytes; type: cell-based; details: human, read-out: TC50, cytotoxicity towards HepG2 hepatocytes
Experimental: (§1) Cells were seeded in plates and incubated overnight in a humidified incubator at 37° C., 5% CO2. […] After 72-hours of incubation, CellTiter-Glo® reagent (Promega) was added to plates and the relative luminescent units (RLU) were measured using a Synergy 4 plate reader (Biotek). […] Growth inhibition curves were fitted using the Levenberg-Marquardt algorithm. The IC50 was defined as the compound concentration that produced 50% of the growth inhibitory response.

Mtb in THP-1 macrophages = assay: Antitubercular activity (Mtb survival) in THP-1 macrophages; type: cell-based, Mycobacterium tuberculosis; details: for IC50: Mycobacterium tuberculosis, THP1MACROPHAGES
Text: FIG. 18A depicts time-dependent antitubercular activity in THP-1 macrophages. FIG. 18B depicts the average of the Hill slope values corresponding to the IC50 values used to plot the mean IC50 in FIG. 18A.

[3] = Cytotoxicity towards RAW macrophages; type: cell-based; details: mouse, read-out: TC50, cytotoxicity towards RAW macrophages
Experimental: as §1

THP1 macrophages = assay: Cytotoxicity against THP1 macrophages; type: cell-based
M. bovis cells [4] = type: cell-based, Mycobacterium bovis; details: cell culture
[5] = target: T1, purified recombinant Hip1 (Mycobacterium tuberculosis, UniProt P9WHR3); details: cited from earlier work
T1 sequence (P9WHR3 31-520): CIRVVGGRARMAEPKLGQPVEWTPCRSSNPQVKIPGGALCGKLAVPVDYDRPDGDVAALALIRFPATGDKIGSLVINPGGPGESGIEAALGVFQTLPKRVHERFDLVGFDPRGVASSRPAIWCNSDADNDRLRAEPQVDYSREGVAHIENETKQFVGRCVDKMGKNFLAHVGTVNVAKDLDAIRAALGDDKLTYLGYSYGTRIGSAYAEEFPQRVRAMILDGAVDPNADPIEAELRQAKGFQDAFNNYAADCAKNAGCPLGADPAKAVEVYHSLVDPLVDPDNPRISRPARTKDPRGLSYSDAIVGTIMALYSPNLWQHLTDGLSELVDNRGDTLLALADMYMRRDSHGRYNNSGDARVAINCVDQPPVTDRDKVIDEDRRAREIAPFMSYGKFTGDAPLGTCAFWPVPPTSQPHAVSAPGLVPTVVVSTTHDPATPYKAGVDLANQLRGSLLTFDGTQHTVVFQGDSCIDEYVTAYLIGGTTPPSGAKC

[6] = THP-1, 24 h, read-out: IC50 Mean ± SEM
[7] = THP-1, 72 h, read-out: IC50 Mean ± SEM
[8] = THP-1, 72 h, read-out: IC50 Range
[9] = THP-1 macrophages, time point 48 h, read-out: IC50 Mean ± SEM
[10] = THP-1 macrophages, time point 48 h, read-out: IC50 Range

Q: For `NCCc1ccc(S(=O)(=O)F)cc1` [AEBSF], which “Inhibition of cleavage of UFNG1 by M. bovis cells” value (“Inhibition of cleavage of UFNG1” for short) (M. bovis cells [1]) is on record?
A: most significant inhibition

Q: Which CC50 at 72 h [2] does the source give for `COC(=O)C(=O)[C@H](CC(C)C)NC(=O)[C@H](CCCCN)NC(=O)[C@H](Cc1ccccc1)NC(=O)OCc1ccccc1` [Cbz-Phe-Lys-Leu-CO—CO2Me] here?
A: > 100 µM

Q: What about the IC50 (Mtb in THP-1 macrophages; [6]) of the same compound?
A: 69.7 ± 18.7 µM

Q: What about the IC50 (Mtb in THP-1 macrophages; [7]) of the same compound?
A: 13.9 ± 4.86 µM

Q: And the IC50 (Mtb in THP-1 macrophages; [8])?
A: 8.24 to 23.6 µM

Q: And the IC50 (Mtb in THP-1 macrophages; [9])?
A: 19.6 ± 4.98 µM

Q: And the IC50 (Mtb in THP-1 macrophages; [10])?
A: 12.7 to 29.3 µM

Q: What about the “Mtb survival in THP1 macrophages” value (Mtb in THP-1 macrophages) of the same compound?
A: effectively reduces Mtb survival

Q: What about the “IC50 Range” value (Mtb in THP-1 macrophages; THP-1 macrophages, time point 24 h) of the same compound?
A: 51.09 to 8.38 μM

Q: And the CC50 at 72 h [3]?
A: > 100 µM

Q: And the “Inhibition of cleavage of UFNG1” value (M. bovis cells [1]; FRET substrate UFNG1)?
A: most significant inhibition

Q: And the “Cytotoxicity against THP1 macrophages” value (THP1 macrophages)?
A: does not have significant cytotoxicity

Q: With `CC(C)C[C@H](NC(=O)[C@H](CCCCN)NC(=O)[C@H](Cc1ccccc1)NC(=O)OCc1ccccc1)C(=O)Nc1ccc([N+](=O)[O-])cc1` [Cbz-Phe-Lys-Leu-pNa] (Cbz-Phe-Lys-Leu-pNA) as the compound, how does the “Cleavage of substrate by M. bovis cells” value (M. bovis cells [4]) read?
A: cleaved by M. bovis

Q: For `CC(C)C[C@H](NC(=O)[C@H]1O[C@@H]1C(=O)O)C(=O)NCCCCN=C(N)N` [E-64], which “Inhibition of cleavage of UFNG1” value (M. bovis cells [1]; FRET substrate UFNG1) is on record?
A: do not inhibit cleavage of UFNG1 appreciably

Q: For `O=C(O)CN(CCN(CC(=O)O)CC(=O)O)CC(=O)O` [EDTA], which “Inhibition of cleavage of UFNG1” value (M. bovis cells [1]; FRET substrate UFNG1) is on record?
A: do not inhibit cleavage of UFNG1 appreciably

Q: With `COC(=O)C(=O)[C@H](C[C@@H]1CCNC1=O)NC(=O)[C@H](CCCCN)NC(=O)[C@H](Cc1ccccc1)NC(=O)OCc1ccccc1` [Inhibitor Compound 2, Cbz-Phe-Lys-Glnlac-CO—CO2Me] as the compound, how does the IC50 (Mtb in THP-1 macrophages; [6]) read?
A: 104 ± 39.1 µM

Q: What about the IC50 (Mtb in THP-1 macrophages; THP-1, 24 h, read-out: IC50 Range) of the same compound?
A: 44.4 to 178 µM

Q: What about the IC50 (Mtb in THP-1 macrophages; [7]) of the same compound?
A: 51.8 ± 14.7 µM

Q: What about the IC50 (Mtb in THP-1 macrophages; [8]) of the same compound?
A: 25.6 to 53.3 µM

Q: What about the IC50 (Mtb in THP-1 macrophages; [9]) of the same compound?
A: 58.4 ± 1.15 µM

Q: What about the IC50 (Mtb in THP-1 macrophages; [10]) of the same compound?
A: 57.3 to 59.6 µM

Q: And the “Mtb survival in THP1 macrophages” value (Mtb in THP-1 macrophages)?
A: effectively reduces Mtb survival

Q: And the “Inhibition of cleavage of UFNG1” value (M. bovis cells [1]; FRET substrate UFNG1)?
A: most significant inhibition

Q: And the “Cytotoxicity against THP1 macrophages” value (THP1 macrophages)?
A: does not have significant cytotoxicity

Q: Which “Inhibition of cleavage of UFNG1” value (M. bovis cells [1]) does the source give for `O=S(=O)(F)Cc1ccccc1` [PMSF, phenylmethylsulfonyl fluoride] here?
A: did not significantly inhibit cleavage

Q: What about the “Inhibition of Hip1 (studies have shown)” value [5] of the same compound?
A: not an effective inhibitor of purified recombinant Hip1; also recorded: poor inhibitor of Hip1

Q: For `CC(C)C[C@H](NC(=O)[C@@H](NC(=O)N[C@@H](Cc1ccccc1)C(=O)O)[C@@H]1CCN=C(N)N1)C(=O)N[C@H](C=O)Cc1ccccc1` [chymostatin], which “Inhibition of Hip1 (studies have shown)” value [5] is on record?
A: inhibit Hip1

Q: For `CC(=O)N[C@@H](CC(C)C)C(=O)N[C@@H](CC(C)C)C(=O)N[C@H](C=O)CCCNC(=N)N` [leupeptin], which “Inhibition of Hip1 (studies have shown)” value [5] is on record?
A: inhibit Hip1

Q: With `CC(C)CC(=O)N[C@H](C(=O)N[C@H](C(=O)N[C@@H](CC(C)C)[C@@H](O)CC(=O)N[C@@H](C)C(=O)N[C@@H](CC(C)C)[C@@H](O)CC(=O)O)C(C)C)C(C)C` [pepstatin] (Isovaleryl-VV[Sta]A[Sta]-OH) as the compound, how does the “Inhibition of cleavage of UFNG1” value (M. bovis cells [1]; FRET substrate UFNG1) read?
A: do not inhibit cleavage of UFNG1 appreciably
